Laboratory results: paper PMC10051454, “Synthesis of Schiff Bases Containing Phenol Rings and Investigation of Their Antioxidant Capacity, Anticholinesterase, Butyrylcholinesterase, and Carbonic Anhydrase Inhibition Properties” (Pharmaceutics, 2023)
Where “and” joins values, the source holds several entries; their conditions need not be identical. Identical values can stand only once. Like-named read-outs stand apart in the source and are kept apart here.

Columns and labels:
[1] = Fe3+ reducing ability (ferricyanide method, absorbance 700 nm); settings: 30 µg/mL; absorbance at 700 nm
Protocol: The Fe^3+ reducing ability of Schiff bases (10–15) and hydrazineylidene derivatives (16 and 17) were tested according to our prior studies. For this purpose, various concentrations of compounds (10–17) were transferred into test tubes, and 2.5 mL of phosphate buffer (0.2 M, pH 6.6) and 2.5 mL (1%) of potassium ferricyanide [K3Fe(CN)6] solutions were added. Then, the mixture was vortexed and incubated at 50 °C for 20 min. A portion of trichloroacetic acid (2.5 mL, 10%) was added. Then, 2.5 mL of upper layers of the solutions were mixed with 2.5 mL distilled water and 0.5 mL FeCl3 (0.1%). The absorbance values of the reducing effects of compounds (10–17) and standards were spectrophotometrically recorded at 700 nm.

[2] = Cu2+ reducing ability (neocuproine method, absorbance 450 nm); settings: 30 µg/mL; absorbance at 450 nm
Protocol: The Cu^2+ reducing ability of Schiff bases (10–15) and hydrazineylidene derivatives (16 and 17) were detected according to a prior study. For this purpose, 0.25 mL of CuCl2 solution (10 mM), 0.25 mL of ethanolic neocuproine solution (7.5 × 10^−3 M), and 250 μL of NH4Ac buffer solution (1.0 M) in different concentrations (10–30 μg/mL) were transferred to test tubes containing Schiff base (10–15) and hydrazineylidene derivative (16 and 17) samples. The total volume was made up to 2 mL with distilled water, and their absorbance values were recorded at 450 nm after 30 min of incubation.

[3] = Fe3+-TPTZ complex reducing ability (absorbance 593 nm); settings: 30 µg/mL; absorbance at 593 nm
Protocol: The Fe^3+-TPTZ complex reducing ability of Schiff bases (10–15) and hydrazineylidene derivatives (16 and 17) was realized according to a previous study. For this, 2.25 mL of TPTZ solution (10 mM in 40 mM HCl) was freshly prepared, then added to 2.5 mL of acetate buffer (0.3 M, pH 3.6) and 2.25 mL of FeCl3 solution (20 mM). Then, different concentrations of Schiff bases (10–15) and hydrazineylidene derivatives (16 and 17) were transferred and incubated at 37 °C for 30 min. Finally, the absorbance values of the reducing power of Schiff bases (10–15) and hydrazineylidene derivatives (16 and 17) and standards were spectrophotometrically measured at 593 nm.

[4] = DPPH radical scavenging (Blois method); settings: half maximal scavenging concentration
Protocol: DPPH· and ABTS^•+ scavenging methods are the most widely used spectrophotometric methods to determine the antioxidant capacity of newly synthesized compounds. The DPPH‧ scavenging effect of Schiff bases (10–15) and hydrazineylidene derivatives (16 and 17) was realized according to the Blois method. Briefly, 1 mL of DPPH^• solution (0.1 mM), which was prepared in ethanol and was a violet/purple color […], was added to the Schiff base (10–15) and hydrazineylidene derivative (16 and 17) samples at different concentrations (10–30 μg/mL). Then, they were incubated at room temperature for 30 min and their absorbance values were recorded at 517 nm.

[5] = ABTS radical cation scavenging
Protocol: The ABTS radical cation scavenging assay was used as a way to calculate antioxidant capacity based on this radical scavenging ability. Firstly, an aqueous solution of ABTS (7.0 mM) was oxidized by oxidants such as K2S2O8 (2.5 mM) for the production of its radical cation (ABTS^•+). […] Then, 1 mL of ABTS^•+ solution was added to 3 mL Schiff base (10–15) and hydrazineylidene derivative (16 and 17) solutions at different concentrations (10–30 μg/mL).

hCA II = hCA II (Homo sapiens, UniProt P00918); test: hCA II inhibition, esterase assay (Verpoorte); assay type: biochemical
Excerpt: (§2) Both isoforms’ activity was spectrophotometrically determined according to the Verpoorte assay [47]. […] All experiments of the CA inhibition assay were repeated three times and the results are given as the arithmetic mean of these repetitions.

AChE = AChE (Homo sapiens, UniProt P22303); test: biochemical
Protocol: (§1) Acetylthiocholine iodide/butyrylthiocholine iodide (AChI)/BChI) and 5,5′-dithiobis(2-nitro-benzoic acid) (DTNB) were used as the substrate pattern for both cholinergic reactions. […] Then, the samples were incubated at 25 °C for 15 min, and 50 μL of DTNB solution (0.5 mM,) was transferred.

BChE = BChE (Homo sapiens, UniProt P06276); test: biochemical
Protocol: as §1

hCA I [6] = molecular target: T1, hCA I (Homo sapiens, UniProt P00915)
Excerpt: as §2

hCA I [7] = molecular target: T1, hCA I; test: biochemical
Excerpt: as §2

T1 sequence (P00915 whole entry): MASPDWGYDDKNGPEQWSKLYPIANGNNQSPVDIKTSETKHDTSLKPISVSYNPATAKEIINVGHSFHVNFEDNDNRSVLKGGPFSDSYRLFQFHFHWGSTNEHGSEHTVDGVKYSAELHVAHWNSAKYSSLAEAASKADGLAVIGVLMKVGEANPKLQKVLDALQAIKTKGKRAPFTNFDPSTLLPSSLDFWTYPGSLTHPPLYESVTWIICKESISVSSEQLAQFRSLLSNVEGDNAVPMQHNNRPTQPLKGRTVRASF
AChE, sequence (P22303 32-614): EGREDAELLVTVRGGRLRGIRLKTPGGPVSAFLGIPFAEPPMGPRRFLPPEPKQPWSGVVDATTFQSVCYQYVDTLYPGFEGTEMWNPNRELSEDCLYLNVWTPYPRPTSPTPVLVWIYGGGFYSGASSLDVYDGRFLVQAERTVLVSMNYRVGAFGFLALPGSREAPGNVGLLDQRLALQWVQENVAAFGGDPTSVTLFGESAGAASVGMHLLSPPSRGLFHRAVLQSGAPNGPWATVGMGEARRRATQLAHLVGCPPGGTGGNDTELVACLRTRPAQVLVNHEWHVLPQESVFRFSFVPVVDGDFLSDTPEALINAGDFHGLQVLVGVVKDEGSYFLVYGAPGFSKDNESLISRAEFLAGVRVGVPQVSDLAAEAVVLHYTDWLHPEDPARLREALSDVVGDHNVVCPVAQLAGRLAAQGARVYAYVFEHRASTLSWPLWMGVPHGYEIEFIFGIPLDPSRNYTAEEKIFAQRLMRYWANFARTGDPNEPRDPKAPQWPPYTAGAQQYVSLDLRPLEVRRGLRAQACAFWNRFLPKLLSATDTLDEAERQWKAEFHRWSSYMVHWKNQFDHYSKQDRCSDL
BChE, sequence (P06276 29-602): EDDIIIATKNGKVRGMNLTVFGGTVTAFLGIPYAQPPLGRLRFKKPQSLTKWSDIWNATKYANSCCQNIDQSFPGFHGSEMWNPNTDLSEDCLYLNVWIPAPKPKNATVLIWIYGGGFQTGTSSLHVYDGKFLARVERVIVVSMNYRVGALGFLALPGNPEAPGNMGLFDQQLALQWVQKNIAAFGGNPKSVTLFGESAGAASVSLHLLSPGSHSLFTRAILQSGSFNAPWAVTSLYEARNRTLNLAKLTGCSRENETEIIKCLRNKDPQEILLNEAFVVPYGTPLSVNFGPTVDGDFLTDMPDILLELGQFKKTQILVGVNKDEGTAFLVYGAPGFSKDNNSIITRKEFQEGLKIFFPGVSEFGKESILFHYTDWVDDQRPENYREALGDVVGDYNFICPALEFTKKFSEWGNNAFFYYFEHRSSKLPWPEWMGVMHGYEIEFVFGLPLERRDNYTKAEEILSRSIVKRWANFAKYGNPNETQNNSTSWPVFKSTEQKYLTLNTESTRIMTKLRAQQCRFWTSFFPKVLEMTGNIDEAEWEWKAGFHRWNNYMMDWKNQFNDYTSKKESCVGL

Cc1cc(C(C)(C)C)c(O)c(C(C)(C)C)c1 [BHT, butylated hydroxytoluene, reference compound]
Fe^3+ Reducing λ700 [1]: 1.994 ± 0.033 absorbance
Cu^2+ Reducing λ450 [2]: 2.149 ± 0.019 absorbance
Fe^3+-TPTZ Reducing λ593 [3]: 2.037 ± 0.027 absorbance
DPPH^• Scavenging IC50 [4]: 13.326 µg/mL and 13.32 µg/mL
ABTS^•+ Scavenging IC50 [5]: 4.95 µg/mL

COc1ccc(/C=N/Nc2ccccc2)cc1O [Compound 17, (E)-2-Methoxy-5-((2-phenylhydrazineylidene)methyl)phenol]
Fe^3+ Reducing λ700 [1]: 2.391 ± 0.037 absorbance
Cu^2+ Reducing λ450 [2]: 2.026 ± 0.016 absorbance
Fe^3+-TPTZ Reducing λ593 [3]: 2.121 ± 0.014 absorbance
DPPH^• Scavenging IC50 [4]: 14.744 µg/mL and 14.74 µg/mL
ABTS^•+ Scavenging IC50 [5]: 4.304 µg/mL and 4.30 µg/mL
IC50 (hCA II; read-out: IC50 hCA II): 0.116 µM
Selectivity Index (AChE/BChE) (AChE): 1.206
IC50 (AChE; read-out: IC50 AChE): 0.0239 µM
IC50 (BChE; read-out: IC50 BChE): 0.0198 µM
Selectivity Index (hCA I/hCA II) (hCA I [6]): 0.247
IC50 (hCA I [7]): 0.0963 µM

COc1ccc(/C=N/c2ccc(F)cc2)cc1O [Compound 12, (E)-5-(((4-Fluorophenyl)imino)methyl)-2-methoxyphenol]
Fe^3+ Reducing λ700 [1]: 0.294 ± 0.008 absorbance
Cu^2+ Reducing λ450 [2]: 0.951 ± 0.010 absorbance
Fe^3+-TPTZ Reducing λ593 [3]: 0.806 ± 0.003 absorbance
DPPH^• Scavenging IC50 [4]: 57.75 µg/mL
ABTS^•+ Scavenging IC50 [5]: 27.72 µg/mL
IC50 (hCA II; read-out: IC50 hCA II): 0.099 µM
Selectivity Index (AChE/BChE) (AChE): 0.700
IC50 (AChE; read-out: IC50 AChE): 0.0231 µM
IC50 (BChE; read-out: IC50 BChE): 0.033 µM
Selectivity Index (hCA I/hCA II) (hCA I [6]): 0.424
IC50 (hCA I [7]): 0.0619 µM

COc1ccc(/C=N/c2ccccc2O)cc1O [Compound 11, (E)-5-(((2-Hydroxyphenyl)imino)methyl)-2-methoxyphenol]
Fe^3+ Reducing λ700 [1]: 2.591 ± 0.010 absorbance
Cu^2+ Reducing λ450 [2]: 2.332 ± 0.018 absorbance
Fe^3+-TPTZ Reducing λ593 [3]: 2.183 ± 0.016 absorbance
DPPH^• Scavenging IC50 [4]: 12.157 µg/mL and 12.15 µg/mL
ABTS^•+ Scavenging IC50 [5]: 4.386 µg/mL and 4.38 µg/mL
IC50 (hCA II; read-out: IC50 hCA II): 0.0882 µM
Selectivity Index (AChE/BChE) (AChE): 0.645
IC50 (AChE; read-out: IC50 AChE): 0.0224 µM
IC50 (BChE; read-out: IC50 BChE): 0.0347 µM
Selectivity Index (hCA I/hCA II) (hCA I [6]): 0.730
IC50 (hCA I [7]): 0.0866 µM

COc1ccc(/C=N/N=C(c2ccccc2)c2ccccc2)cc1O [Compound 16, (E)-5-(((Diphenylmethylene)hydrazineylidene)methyl)-2-methoxyphenol]
Fe^3+ Reducing λ700 [1]: 0.311 ± 0.018 absorbance
Cu^2+ Reducing λ450 [2]: 1.266 ± 0.029 absorbance
Fe^3+-TPTZ Reducing λ593 [3]: 1.069 ± 0.057 absorbance
DPPH^• Scavenging IC50 [4]: 30.13 µg/mL
ABTS^•+ Scavenging IC50 [5]: 11.745 µg/mL and 11.74 µg/mL
IC50 (hCA II; read-out: IC50 hCA II): 0.112 µM
Selectivity Index (AChE/BChE) (AChE): 0.627
IC50 (AChE; read-out: IC50 AChE): 0.0161 µM
IC50 (BChE; read-out: IC50 BChE): 0.0257 µM
Selectivity Index (hCA I/hCA II) (hCA I [6]): 0.326
IC50 (hCA I [7]): 0.0693 µM

COc1ccc(C=O)cc1O [Compound 1, Isovanillin]
Fe^3+ Reducing λ700 [1]: 0.244 ± 0.005 absorbance
Cu^2+ Reducing λ450 [2]: 1.005 ± 0.009 absorbance
Fe^3+-TPTZ Reducing λ593 [3]: 0.728 ± 0.020 absorbance
DPPH^• Scavenging IC50 [4]: 86.62 µg/mL
ABTS^•+ Scavenging IC50 [5]: 12.15 µg/mL
IC50 (hCA II): 0.173 µM
IC50 (AChE): 0.0578 µM
Selectivity Index (AChE/BChE) (AChE): 1.083
IC50 (BChE): 0.0533 µM
IC50 (hCA I [7]): 0.139 µM
Ki (hCA I [7]): 0.112 ± 0.0258 µM

COc1ccc(/C=N/c2ccc(Br)cc2)cc1O [Compound 13, (E)-5-(((4-Bromophenyl)imino)methyl)-2-methoxyphenol]
Fe^3+ Reducing λ700 [1]: 0.198 ± 0.004 absorbance
Cu^2+ Reducing λ450 [2]: 0.875 ± 0.020 absorbance
Fe^3+-TPTZ Reducing λ593 [3]: 0.701 ± 0.003 absorbance
DPPH^• Scavenging IC50 [4]: 87.721 µg/mL and 87.72 µg/mL
ABTS^•+ Scavenging IC50 [5]: 34.65 µg/mL
Ki (hCA II): 0.0676 ± 0.0157 µM
IC50 (hCA II; read-out: IC50 hCA II): 0.077 µM
Selectivity Index (AChE/BChE) (AChE): 0.615
IC50 (AChE; read-out: IC50 AChE): 0.0178 µM
IC50 (BChE; read-out: IC50 BChE): 0.0289 µM
Selectivity Index (hCA I/hCA II) (hCA I [6]): 0.483
IC50 (hCA I [7]): 0.063 µM

Cc1c(C)c2c(c(C)c1O)CCC(C)(C(=O)O)O2 (stereo not shown) [Trolox, trolox, reference compound]
Fe^3+ Reducing λ700 [1]: 1.570 ± 0.016 absorbance
Cu^2+ Reducing λ450 [2]: 1.174 ± 0.027 absorbance
Fe^3+-TPTZ Reducing λ593 [3]: 2.051 ± 0.028 absorbance
DPPH^• Scavenging IC50 [4]: 12.157 µg/mL and 12.15 µg/mL
ABTS^•+ Scavenging IC50 [5]: 4.846 µg/mL and 4.84 µg/mL

COc1ccc(/C=N/c2ccc(N)cc2)cc1O [Compound 14, (E/Z)-5-(((4-Aminophenyl)imino)methyl)-2-methoxyphenol]
Fe^3+ Reducing λ700 [1]: 2.741 ± 0.026 absorbance
Cu^2+ Reducing λ450 [2]: 1.970 ± 0.018 absorbance
Fe^3+-TPTZ Reducing λ593 [3]: 2.074 ± 0.017 absorbance
DPPH^• Scavenging IC50 [4]: 13.86 µg/mL
ABTS^•+ Scavenging IC50 [5]: 5.33 µg/mL
IC50 (hCA II; read-out: IC50 hCA II): 0.0693 µM
Selectivity Index (AChE/BChE) (AChE): 0.900
IC50 (AChE; read-out: IC50 AChE): 0.0347 µM
IC50 (BChE; read-out: IC50 BChE): 0.0385 µM
Selectivity Index (hCA I/hCA II) (hCA I [6]): 0.306
IC50 (hCA I [7]): 0.0533 µM
Ki (hCA I [7]): 0.0261 ± 0.00853 µM

COc1ccc(O)c(C(C)(C)C)c1 [BHA, butylated hydroxyanisole, reference compound]
Fe^3+ Reducing λ700 [1]: 2.448 ± 0.021 absorbance
Cu^2+ Reducing λ450 [2]: 2.268 ± 0.011 absorbance
Fe^3+-TPTZ Reducing λ593 [3]: 2.156 ± 0.005 absorbance
DPPH^• Scavenging IC50 [4]: 11.55 µg/mL
ABTS^•+ Scavenging IC50 [5]: 4.47 µg/mL

NN=C(c1ccccc1)c1ccccc1 [Compound 8, benzophenone hydrazone]
Cu^2+ Reducing λ450 [2]: 1.005 ± 0.009 absorbance

Cc1c(C)c2c(c(C)c1O)CC[C@@](C)(CCC[C@H](C)CCC[C@H](C)CCCC(C)C)O2 [α-Tocopherol, α-tocopherol, reference compound]
Fe^3+ Reducing λ700 [1]: 1.446 ± 0.009 absorbance
Cu^2+ Reducing λ450 [2]: 1.923 ± 0.032 absorbance
Fe^3+-TPTZ Reducing λ593 [3]: 1.763 ± 0.026 absorbance
DPPH^• Scavenging IC50 [4]: 10.043 µg/mL and 10.04 µg/mL
ABTS^•+ Scavenging IC50 [5]: 9.493 µg/mL and 9.49 µg/mL
